# Like-named read-outs stand apart in the source and are kept apart here. Where a SMILES comes first, the peptide text is derived from it. Bridges are numbered along the chain shown (N, C = ends). Roman numbers before positions name the chains, in order.
# Legend:
# [1] = tested on: mouse splenocytes inhibited by MDA-MB-231 tumour cells expressing PD-L1; assay: Mouse splenocyte proliferation rescue, CFSE method; format: cell-based; conditions: screened at 100 nm concentration and compared with 100 nm Comp 8
# Method: Mouse splenocytes harvested from 6-8 weeks old C57 BL6 mice.; RPMI 1640 (GIBCO, Cat #11875); DMEM with high glucose (GIBCO, Cat #D6429); Fetal Bovine Serum [Hyclone, Cat #SH30071.03]; Pencilin (10000 unit/ml)-Streptomycin(10,000 μg/ml) Liquid (GIBCO, Cat #15140-122); MEM Sodium Pyruvate solution 100 mM (100×), Liquid (GIBCO, Cat #11360); Nonessential amino acid (GIBCO, Cat #11140); L-Glutamine (GIBCO, Cat #25030); Anti-CD3 antibody (eBiosciences—16-0032); Anti-CD28 antibody (eBiosciences—16-0281); ACK lysis buffer (1 mL) (GIBCO, Cat #-A10492); Histopaque (density—1.083 gm/ml) (SIGMA 10831); Trypan blue solution (SIGMA-T8154); Hemacytometer (Bright line-SIGMA Z359629); FACS Buffer (PBS/0.1% BSA): Phosphate Buffered Saline (PBS) pH 7.2 (HiMedia TS1006) with 0.1% Bovine Serum Albumin (BSA) (SIGMA A7050) and sodium azide (SIGMA 08591); 5 mM stock solution of CFSE: CFSE stock solution was prepared by diluting lyophilized CFSE with 180 μL of Di methyl Sulfoxide (DMSO C2H6SO, SIGMA-D-5879) and aliquoted in to tubes for further use. Working concentrations were titrated from 10 μM to 1 μM. (eBioscience—650850-85); 96-well format ELISA plates (Corning CLS3390); BD FACS caliber (E6016).
# Splenocytes harvested in a 50 ml falcon tube by mashing spleen in a 40 μm cell strainer were further treated with 1 ml ACK lysis buffer for 5 mins at RT. After washing with 9 ml of RPMI complete media, cells re-suspended in 3 ml of 1×PBS in a 15 ml tube. 3 ml of histopaque was added very carefully to the bottom of the tube without disturbing overlaying splenocyte suspension. Spin the tube at 800×g for 20 mins at RT. Opaque layer of lymphocytes is collected carefully without disturbing/mixing any of the layers. Cells washed twice with cold 1×PBS followed by total cell counting using trypan blue exclusion method and used further for cell based assays.
# Tumour cells (MDMBA231) are cultured and maintained in high glucose complete DMEM media. 1×10^5 tumour cells were plated in 96 well plates along with required conc. of PD1 derived peptide and allowed to adhere at 37° C. for 4 hrs. 1×10^6 cells/ml of harvested splenocytes are treated with 5 μM of CFSE in pre warmed 1×PBS/0.1% BSA solution for 10 mins at 37° C. Excess CFSE was quenched using 5 volumes of ice-cold culture media to the cells and incubated on ice for 5 mins. CFSE labeled splenocytes were further given three washes with ice cold complete DMEM media. CFSE labeled 1×10^5 splenocytes added to above wells containing tumours cells and test compounds. Splenocytes were stimulated with anti-CD3 and anti-CD28 antibody (1 μg/ml each) and the co-culture was further incubated for 72 hrs at 37° C. with 5% CO2. Cells were harvested and washed thrice with ice cold FACS buffer and % proliferation was analyzed using a FACS caliber with 488 nm excitation and 521 nm emission filters. Each experimental condition was carried out in triplicates and each experiment at least carried out three times. Splenocyte proliferation was analyzed using cell quest FACS program and fold induction was calculated by normalizing individual values to percent background proliferation. Fold induction=Percent splenocyte proliferation/percent background proliferation Stimulated splenocytes: Splenocytes+anti-CD3/CD28 stimulation Background proliferation: Splenocytes+anti-CD3/CD28+Tumour Percent Proliferation rescue={(compound percent proliferation−Background percent proliferation)/(Stimulated percent proliferation−Background percent proliferation)}*100.
# [2] = tested on: Organisms (not named); assay: organism not typed
# Method: Required quantity of the compound was weighed and dissolved in water/dimethyl sulphoxide/suitable solvent to yield 1 mg/ml stock solution. The stock solution was diluted in MHB/CAMHB to yield 8 μg/ml or 64 μg/ml or 512 μg/ml solution as per requirement. Serial two fold dilutions of the compound was prepared using MHB/CAMHB in 96 well microtitre trays using a multichannel pipette. Organisms were grown in MHB/CAMHB for 4-5 hrs at 35±2° C., 110±10 rpm. Optical density (OD) of the cultures is adjusted to 625 nm which corresponds to 0.5 Mc Farland standard (1-2×10^8 cfu/ml) and further diluted to achieve a final inoculum of […]×10^4 cfu/well. Broth, compound and organism controls were set up. Microdilution trays were incubated at 35±2° C. for 16-20 hours in an ambient air incubator. After the incubation period, growth of organism in the wells was detected by unaided eye facilitated by a viewing device.
# [3] = tested on: B16F10 cells; conditions: 5 mg/kg s.c.; during the period of dosing
# Method: C57/Black6 female mice (Aurigene, Bangalore, India) aged 6 to 8 weeks were used for the experiment. Animals were acclimatized for a week in the experimental room before conducting the experiment.
# On day 0, B16F10 cells grown in DMEM containing 10% FBS at 70 to 75% confluency were harvested and 1×10^6 cells per animal were injected to mice subcutaneously on the right flank region. […] Vehicle control group of mice received only saline. Each group consisted of ten animals. Body weight and clinical signs were recorded daily.
# [4] = tested on: 4T1 cells; conditions: 3 mg/kg s.c.; during dosing period
# Method: On day 0, 4T1 cells grown in RPMI 1640 containing 10% FBS at 70 to 75% confluency were harvested and 0.1×10^6 cells per animal were injected along with matrigel orthotopically to mammary fat pad. […] Vehicle control group of mice received only saline. Each group consisted of ten animals. Body weight and clinical signs were recorded daily. Tumour volume was measured by slide callipers.
# [5] = in vitro
# Method: Briefly, overnight fasted rats were sacrificed by cervical dislocation; kidneys were removed, washed with chilled saline and decapsulated. The renal tissue was sliced and a 5% homogenate was made in buffer containing 2 mM Tris-HCl, 50 mM mannitol pH 7.1 using 10 strokes in a Porter-Elvelhemhomogeniser. The homogenate was centrifuged at 250×g for 5 min and the pellet was re-homogenized (four strokes) in the same buffer. Both the homogenate preparations were pooled (an aliquot of sample was taken for enzyme assays), allowed to remain at 4° C. for 15 min and filtered using a nylon mesh cloth. To this, a 50% PEG solution in water was added to make a final concentration of 10% PEG, stirred for 15 min continuously at 4° C. and centrifuged at 7500×g for 10 min. The pellet was discarded and the supernatant was spun at 12,000×g for 10 min. This pellet was discarded and the supernatant was centrifuged at 27,000×g for 40 min. To the pellet, 15 ml suspension buffer containing 10 mM Tris-HCl and 300 mM mannitol, pH 7.1 was added, centrifuged at 27,000×g for 40 min. The pellet was washed twice with the same suspension buffer and finally suspended 1 ml of the same buffer using a syringe fitted with a 26-gauge needle.
# 1. Microsomal protein working solution was prepared as mentioned above (0.55 mg/ml) in 50 mM potassium phosphate buffer (pH 7.4)
# 2. Test compound (compound 69) working stock solutions at concentration of 4 μM was prepared in 50 mM potassium phosphate buffer (pH 7.4)
# 3. 125 μL of test compound (compound 69) from step 2 diluted with 100 μL of buffer and 275 μl of microsomal protein solution from step 2 was pre-incubated separately for 10 mins at 37° C.
# 4. Both the test solution from step 3 was mixed together and the reaction mixture was aliquoted at various time intervals and processed by SPE method.
# Kidney brush border stability of the compounds was calculated as the amount of substrate metabolized by the incubation with kidney brush border microsomes. Initial amount of substrate (concentration at T0) was measured and KBBM stability was assessed by the disappearance of compound at various time points based on the change in analyte to internal standard peak height ratio using LCMS/MS (API 4000, AB Sciex). Results are expressed as mean±SD of test compound remaining at any given time point (Table VI).
# [6] = rat, kidney brush border membrane (KBBM) preparation, pH 7.4
molecule,measurement,setting,value
sntsesfk(sntsesf)frvtqlapkaqike-NH2 [Compound 13],"Percent rescue in mouse splenocyte proliferation CFSE based assay (cell printed with nM, control peptide)",[1]; control peptide,0-12 nM-
SNTSESF-NH2 [Compound 1],Percent rescue for various compounds in mouse splenocyte proliferation CFSE based assay,[1],96.5%
O=C(O)c1cn(C2CC2)c2cc(N3CCNCC3)c(F)cc2c1=O [ciprofloxacin],MIC,[2],0.007 µg/mL
CGAISLAPKAQIKE-NH2 [Compound 5],Percent rescue for various compounds in mouse splenocyte proliferation CFSE based assay,[1],68%
CC[C@H](C)[C@H](NC(=O)[C@H](CCC(N)=O)NC(=O)[C@H](C)NC(=O)[C@H](CCCCN)NC(=O)[C@@H]1CCCN1C(=O)[C@H](C)NC(=O)[C@H](CC(C)C)NC(=O)[C@H](CCC(N)=O)NC(=O)[C@@H](NC(=O)[C@@H](NC(=O)[C@H](CCCNC(=N)N)NC(=O)[C@H](Cc1ccccc1)NC(=O)C(CCCCNC(=O)[C@H](Cc1ccccc1)NC(=O)[C@H](CO)NC(=O)[C@H](CCC(=O)O)NC(=O)[C@H](CO)NC(=O)[C@@H](NC(=O)[C@H](CC(N)=O)NC(=O)[C@@H](N)CO)[C@@H](C)O)NC(=O)[C@H](Cc1ccccc1)NC(=O)[C@H](CO)NC(=O)[C@H](CCC(=O)O)NC(=O)[C@H](CO)NC(=O)[C@@H](NC(=O)[C@H](CC(N)=O)NC(=O)[C@@H](N)CO)[C@@H](C)O)C(C)C)[C@@H](C)O)C(=O)N[C@@H](CCCCN)C(=O)N[C@@H](CCC(=O)O)C(N)=O (stereo partly shown) [Compound 8],MIC,"[2]; broth microdilution, 16-20 hours at 35±2° C.",> 32 µg/mL
same,Body weight,[3],no body weight reduction
same,Clinical signs,[3],no clinical signs
same,Body weight,[4],no body weight reduction
CC[C@H](C)[C@H](NC(=O)[C@H](CCCCN)NC(=O)[C@H](C)NC(=O)[C@H](CCCCN)NC(=O)[C@@H]1CCCN1C(=O)[C@H](Cc1c[nH]cn1)NC(=O)[C@H](CC(C)C)NC(=O)[C@H](CCC(N)=O)NC(=O)[C@@H](NC(=O)[C@@H](NC(=O)[C@H](CCC(N)=O)NC(=O)[C@H](Cc1ccccc1)NC(=O)[C@H](CCCCNC(=O)[C@H](CC(C)C)NC(=O)[C@H](CC(=O)O)NC(=O)[C@H](CCC(=O)O)NC(=O)[C@H](CO)NC(=O)[C@H](Cc1c[nH]c2ccccc12)NC(=O)[C@H](CC(N)=O)NC(=O)[C@@H](N)CO)NC(=O)[C@H](CC(C)C)NC(=O)[C@H](CC(=O)O)NC(=O)[C@H](CCC(=O)O)NC(=O)[C@H](CO)NC(=O)[C@H](Cc1c[nH]c2ccccc12)NC(=O)[C@H](CC(N)=O)NC(=O)[C@@H](N)CO)[C@@H](C)CC)[C@@H](C)CC)C(=O)N[C@@H](CCC(=O)O)C(=O)N[C@@H](CCC(=O)O)C(N)=O [Compound 69] (I: H-SNWSEDLKFQIIQLHPKAKIEE-NH2 / II: H-SNWSEDL; amide I:8-II:C),RKBBM % compound remaining,[5]; 0 min,100%
same,"remaining at 10 min, 1 μM",[5]; [6],100%
same,"remaining at 0.5 h, 1 μM",[5]; [6],98%
same,"remaining at 1 h, 1 μM",[5]; [6],81%
same,Percent rescue for various compounds in mouse splenocyte proliferation CFSE based assay,[1],48%
SNTSESFFRVTQLAPKAQIKE-NH2 [Compound 26],Percent rescue for various compounds in mouse splenocyte proliferation CFSE based assay,[1],86.6%
C[C@H]1COc2c(N3CCN(C)CC3)c(F)cc3c(=O)c(C(=O)O)cn1c23 [levofloxacin],MIC,[2],0.015 µg/mL
Biotin-Ahx-EKIQAKPAYWNLVK(KDTQNS)DTQNS-NH2 [Compound 61],Percent rescue for various compounds in mouse splenocyte proliferation CFSE based assay,[1],67%
EDRSQPGQDCR-NH2 [Compound 4],Percent rescue for various compounds in mouse splenocyte proliferation CFSE based assay,[1],74.7%
Biotin-Ahx-sntsesfk(sntsesf)frvtqlapkaqike-NH2 [Compound 60],Percent rescue for various compounds in mouse splenocyte proliferation CFSE based assay,[1],14.9%
FRVTQLAPKAQIKE-NH2 [Compound 43],Percent rescue for various compounds in mouse splenocyte proliferation CFSE based assay,[1],66%
